The subject of experiment [1] is lysyl-hydroxylase. As to conditions: described in WO 96/09048; cited from earlier work.
For experiment [2], the system named is inducible NO-synthase (NOS2). As to the kind of experiment: Modulation of the induction of NOS2 on normal human keratinocytes (NO-donor activity, nitrite/nitrate measurement). The class given is cell-based. As to conditions: for NO-donating effect: conclusion from the table; for % inhibition: nitrites and nitrates measured. As for the experimental part:
The activity of compounds A and A′ on inducible NO-synthase was evaluated in the test described by Heck et al. (J. B. C., Vol. 267, No. 30, 21277-21280, 25 Oct. 1992), test of “Modulation of the induction of NOS2 (Inducible Nitric Oxide Synthase) on normal human keratinocytes”. The aim of this test is to evaluate the final nitrate and nitrite concentration, after stimulation of NO-synthase 2 or application of an NO donor; it is performed by comparison with the stimulation of cytokine-inducible NO-synthase. The final nitrate and nitrite concentration corresponds to the concentration of NO released.
The test is performed on a culture of normal human keratinocytes obtained from samples. The induction of inducible NO-synthase (NOS2) was brought about by the addition of a combination of several cytokines to the culture medium. The test products were applied at three concentrations ranging from […] to 1000 μM.
The following controls were introduced into the test: • A: Positive control (induction of the enzyme on stimulated cells): mixtures of interferon-γ (1000 μ/ml) and of interleukin 1-β (100 μ/ml) corresponding to […]; • B: Basal control of the unstimulated cells (without cytokines), corresponding to […].
To determine the activity of the test products, the amount of stable NO reaction products (nitrites and nitrates) is measured using the “Nitric Colorimetric Assay” kit sold by the company Boehringer under the reference 1756.28.
The compounds were tested at concentrations of 100 μM, 500 μM and 1000 μM in ethanol.

Experiment [3] concerns lysyl-hydroxylase messenger RNA. Description: Inhibition of the expression of LH (RT-PCR) in normal human dermal fibroblasts. The experiment is classed as cell-based. Conditions: for inhibition of the expression of lysyl-hydroxylase messenger RNA: human fibroblasts in culture, compound 1′ at 10 μM; for LH/actine ratio: percentage of expression of LH over β-Actin internal standard; for LH/actine ratio / LH/collagen ratio: control = 100, NHDF treated 6 hours; for LH/collagen ratio: percentage of expression of LH relative to collagen messenger RNA. As for the experimental part:
Normal human dermal fibroblasts (NHDF) are precultured at high density for 48 hours in MEM199 medium (Gibco) supplemented with 1% foetal calf serum and then treated or not treated with compound 1′ or 1 for 6 hours. The cell carpets are then washed with phosphate-buffered saline (PBS) and then frozen in Tri-reagent medium (Sigma). The total RNAs obtained are extracted with Tri-reagent (Sigma) according to the supplier's protocol. A further extraction is performed using chloroform and the RNAs are then precipitated from isopropanol. After removal of the contaminating traces of DNA by treatment with the DNA-free system (Ambion), a reverse transcription of the RNAs into complementary DNA is performed in the presence of oligo dT and the enzyme superscript II (Gibco).
A pair of primers allowing the amplification of specific LH fragments (516 bp; Mahéet al., 1996, Skin Pharmacol. 9, 177-183) and of specific primers of the sequence of collagen I (420 pb) and β-Actin (500 bp, internal reaction standard) were used for the polymerization chain reaction (PCR) with the PCR Supermix system (Gibco) under the following conditions: 94° C. for 2 minutes and then 25 times (95° C.-1 min, 55° C.-1 min, 72° C.-2 min), the chain reaction being terminated by an elongation cycle of 7 minutes at 72° C.
The amplified fragments are then analysed by electrophoresis on agarose gel (1.5%) in the presence of ethidium bromide. The images were captured on GelPrint 2000i (Biophotonics Corp); the densitometric analyses were obtained using the One D-Scan software (Scanalytics).
The results are expressed as a percentage of expression of LH over the β-Actin internal standard (LH/actine) or relative to the collagen messenger RNA (LH/collagen). A reduction of one or of the two percentages indicates a transcriptional inhibition of the relative expression of lysyl hydroxylase and, by analogy, with the molecule 2-4 DPO, (Mahéet al. 1996, Skin Pharmacol. 9. 177-183) a possible use for limiting the abnormal crosslinking of collagen in alopecia.

In experiment [4] the test system is type L calcium-channel. As to conditions: read-out: IC50Ca2+ (concentration that inhibits 50% of the release of Ca2+); cited from earlier work.
Where [5] appears, read: 100 μM in ethanol, 100 = cytokine-stimulated control A, 0 = unstimulated control B.

As a reminder, the % inhibition is how much of the control response was suppressed.

As for `Nc1cc[n+]([O-])c(N)n1` [aminexil, 2,4-diaminopyrimidine N-oxide], in experiment [1], the “inhibitory activity on the expression of lysyl-hydroxylase” value is on record as “has inhibitory activity on the expression of lysyl-hydroxylase”.
For `Nc1nccc(NCCCO[N+](=O)[O-])[n+]1[O-]` [Compound 3], the NO-donating effect entry in experiment [2] is on record as “have an NO-donating effect”.
For `Nc1nccc(NCCCCO)[n+]1[O-]` [Compound 1′], in experiment [3], the “inhibition of the expression of lysyl-hydroxylase messenger RNA” value is recorded as −24% to −36%, the LH/actine ratio turned out to be 64% and the LH/collagen ratio turned out to be 76%.
For the compound `COc1ccc(CCN(C)CCCC(C#N)(c2ccc(OC)c(OC)c2)C(C)C)cc1OC` (centres unmarked) [verapamil], the IC50 in experiment [4] was 38 nM.
On to `Nc1nccc(NCCO[N+](=O)[O-])[n+]1[O-]` [Compound 2], for which the “% inhibition” value in experiment [2] (setting [5]) was determined as 38.77%. In experiment [2], the NO-donating effect entry is listed as “have an NO-donating effect”.
`Nc1nccc(NCCCCO[N+](=O)[O-])[n+]1[O-]` [Compound 1]: in experiment [3], the “inhibition of the expression of lysyl-hydroxylase messenger RNA” value is reported as “no inhibitory activity”, the LH/actine ratio is on record as 123% and the LH/collagen ratio was 133%. Further, the “% inhibition” value in experiment [2] (setting [5]) is recorded as 0%. Besides, the “% inhibition” value in experiment [2] (500 μM in ethanol, 100 = control A, 0 = control B, NE means no effect) stood at 18.23%. The NO-donating effect entry in experiment [2] is reported as “have an NO-donating effect”.

These data come from US7326717B2, “Pyrimidine n-oxide compounds for stimulating the growth of keratin fibers and/or reducing loss thereof” (L'Oreal, priority 1930, dated 2008).
